Where a SMILES comes first, the peptide text is derived from it.
Tests used:
[1] = Solubility of the synthetic peptide; format: physicochemical
Method: Synthesis Cter M was synthesized using solid phase peptide synthesis and folded using conditions earlier established for other cyclotides (Daly, N. L., et al., (1999) Biochemistry 38, 10606-10614) including the use of 50% isopropanol in buffer. […] The NMR spectra of the native and synthetic Cter M peptides were recorded and found to be identical. The three-dimensional structure of Cter M was calculated with 398 distance restraints and 11 angle restraints using a simulated annealing protocol in CNS.

[2] = Binding to immobilized lipid vesicles (sensorgram); details: PE membranes
chymotrypsin = experiment: Proteolysis by chymotrypsin (MS of leaf extract); format: in vitro ADME; details: native Cter M in leaf extract
From the text: (§1) The reduced and alkylated peptide, m/z 3407.6 (E, G, I) underwent proteolytic cleavage by trypsin (F) and chymotrypsin (H, J). As there is only a single tryptic site, the trypsin digestion product is observed at m/z 3424.6, whereas there were three chymotryptic sites resulting in the formation of major products at m/z 1450.7, 1511.7 and 1931.8 corresponding to KNGLPTCGETCL (SEQ ID NO:129), VPDCSCSWPICM (SEQ ID NO:130) and KNGLPTCGETCLGTCY (SEQ ID NO:131) respectively.

[3] = Heat denaturation, NMR spectra before and after heating; format: physicochemical; details: 95° C. for 5 minutes
From the text: (B) Superposition of the 20 lowest energy structures of Cter M. Secondary structure of Cter M (C) and PA1b (E; PDB code 1P8B). The strands are shown as arrows and the helical turns as thickened ribbons. The disulfide bonds are shown in ball-and-stick format. The structure figures were generated using MOLMOL (Koradi, R., Billeter, M. & Wüthrich, K. (1996) J. Mol. Graph. 14, 29-32). Superimposition of Cter M and PA1b (D) showing cystine knot motif; disulfide bonds are indicated, and the aC are represented by spheres.
The structure of Cter M is extremely stable evidenced by its resistance to heat denaturation. […] An ensemble and ribbon representation of the three dimensional structure is shown in FIG. 14 along with a comparison with PA1b, the pea albumin whose precursor shares high sequence homology with the Cter gene.

human red blood cells = experiment: Haemolytic activity assay; format: cell-based; details: human red blood cells
Method: (§2) Serially diluted peptide solutions were incubated with washed human red blood cells. Following incubation, the supernatant was transferred before the UV absorbance was measured. The amount of haemolysis was calculated as the percentage of maximum lysis (1% Triton X-100 control) after adjusting for minimum lysis (PBS control). Synthetic melittin was used for comparison. The haemolytic dose necessary to lyse 50% of the RBCs (HD50) was calculated using the regression constant from the linear portion of the haemolytic titration curve (Graphpad Prism software).

[4] = Haemolytic activity assay; format: cell-based, human; details: washed human red blood cells; % of maximum lysis (1% Triton X-100); read-out: haemolytic dose necessary to lyse 50% of the RBCs (HD50)
Method: as §2

trypsin = biological target: T1, trypsin (Bos taurus, UniProt P00760); experiment: Proteolysis by trypsin (MS of leaf extract); format: in vitro ADME; details: native Cter M in leaf extract
T1 construct: purchased Sigma T1426
T1 sequence (P00760 24-246): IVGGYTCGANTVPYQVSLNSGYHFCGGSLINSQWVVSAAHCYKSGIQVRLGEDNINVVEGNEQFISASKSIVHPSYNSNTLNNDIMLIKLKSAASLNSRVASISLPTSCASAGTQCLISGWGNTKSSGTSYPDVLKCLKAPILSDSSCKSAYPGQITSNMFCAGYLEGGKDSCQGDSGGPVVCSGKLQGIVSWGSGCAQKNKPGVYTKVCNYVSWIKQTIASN
From the text: as §1

[5] = system: Helicoverpa armigera larvae; experiment: Insecticidal feeding trial; format: in vivo; details: against the cotton budworm Helicoverpa armigera
Method: H. armigera larvae were obtained from the Queensland Department of Employment, Economic Development & Innovation. A feeding trial was conducted for 48 h with larvae maintained at 25° C. throughout the experiment. Larvae were given diets consisting of wheat germ, yeast, and soy flour.

[6] = system: L3-stage larvae of Haemonchus contortus; experiment: Larval migration (motility) assay; format: cell-based; details: against Haemonchus contortus
Method: The effect of kB1 and Cter M on the motility of L3-stage larvae of Haemonchus contortus was assessed using a previously described method (Colgrave, et al., 2010, Antimicrob. Agents Ch. 54:2160-2166). The larvae were incubated in PBS containing a range of peptide concentrations for 24 h in the dark in a 96-well plate format. The motility of the worms was assessed wherein sinusoidal motion was indicative of health and loss of motility or the degree of motility was indicative of poor health. Nematodes that had been incubated with cyclotides were compared to control (no-peptide) wells.

SMILES: CC[C@H](C)[C@@H]1NC(=O)[C@@H]2CCCN2C(=O)[C@H](Cc2c[nH]c3ccccc23)NC(=O)[C@H](CO)NC(=O)[C@@H]2CSSC[C@@H]3NC(=O)[C@H]([C@@H](C)O)NC(=O)[C@H](CCC(=O)O)NC(=O)CNC(=O)[C@@H]4CSSC[C@H](NC(=O)[C@H](CC(=O)O)NC(=O)[C@@H]5CCCN5C(=O)[C@H](C(C)C)NC(=O)[C@H](Cc5ccc(O)cc5)NC(=O)[C@H](CSSC[C@H](NC1=O)C(=O)N[C@@H](CCSC)C(=O)N[C@@H](CCCCN)C(=O)N[C@@H](CC(N)=O)C(=O)NCC(=O)N[C@@H](CC(C)C)C(=O)N1CCC[C@H]1C(=O)N[C@@H]([C@@H](C)O)C(=O)N4)NC(=O)[C@H]([C@@H](C)O)NC(=O)CNC(=O)[C@H](CC(C)C)NC(=O)[C@H]([C@@H](C)O)NC3=O)C(=O)N[C@@H](CO)C(=O)N2 [Cter M] (HELM PEPTIDE1{C.G.E.T.C.T.L.G.T.C.Y.V.P.D.C.S.C.S.W.P.I.C.M.K.N.G.L.P.T}$PEPTIDE1,PEPTIDE1,1:R3-15:R3|PEPTIDE1,PEPTIDE1,5:R3-17:R3|PEPTIDE1,PEPTIDE1,10:R3-22:R3|PEPTIDE1,PEPTIDE1,1:R1-29:R2$$$V2.0)
- solubility on addition of acetonitrile ([1]; addition of acetonitrile): greatly improved the solubility
- solubility in water ([1]; water): relatively low solubility in water
- membrane binding [2]: binds to PE membranes
- hydrolysis by chymotrypsin (chymotrypsin): no observed hydrolysis
- resistance to heat denaturation (change in NMR spectra) [3]: no changes were observed in the spectra
- haemolytic activity (human red blood cells): mildly haemolytic
- HC50 [4]: > 100 µM
- hydrolysis by trypsin (trypsin): no observed hydrolysis
- insecticidal activity [5]: insecticidal activity
- anthelmintic activity [6]: anthelmintic activity

SMILES: CC(C)C[C@@H]1NC(=O)CNC(=O)[C@H](CC(N)=O)NC(=O)[C@H](CCCNC(=N)N)NC(=O)[C@H]([C@@H](C)O)NC(=O)[C@@H]2CSSC[C@@H]3NC(=O)[C@H]([C@@H](C)O)NC(=O)CNC(=O)CNC(=O)[C@H](C(C)C)NC(=O)[C@@H]4CSSC[C@H](NC(=O)[C@H]([C@@H](C)O)NC(=O)[C@H](CSSC[C@H](NC(=O)[C@H](C(C)C)NC(=O)[C@@H]5CCCN5C1=O)C(=O)NCC(=O)N[C@@H](CCC(=O)O)C(=O)N[C@@H]([C@@H](C)O)C(=O)N4)NC(=O)CNC(=O)[C@@H]1CCCN1C(=O)[C@H]([C@@H](C)O)NC(=O)[C@H](CC(N)=O)NC3=O)C(=O)N[C@@H](CO)C(=O)N[C@@H](Cc1c[nH]c3ccccc13)C(=O)N1CCC[C@H]1C(=O)N[C@@H](C(C)C)C(=O)N2 [kB1, kalata B1, reference compound]
- HC50 [4]: 7.8 µM
